Results as given in patent US20180282415A1, “Combination of a PD-1 Axis Binding Antagonist and an ALK Inhibitor for Treating ALK-Negative Cancer” (Merck Patent GmbH, priority 2015, published 2018).

What was measured:
CT26 colon carcinoma = test: In vivo tumor efficacy, CT26 model, crizotinib or alectinib with anti-PD-L1 (Example 3); set-up: species or system Balb/c mice
Excerpt: (§1) CT26 colon carcinoma cell line has published mutanome and transcriptome data, with no known ALK fusion events or oncogenic mutations. Castle et al, BMC Genomics, 15:190 (13 Mar. 2014); Castle et al, CAN 11:3722 (11 Jan. 2012).
(§2) Six- to eight-week old female Balb/c or C57BL/6 mice were purchased from The Jackson Laboratories.
CT26 cell lines, anti-PD-L1 antibody and Rat IgG isotypes (IgG2a and IgG2b) were purchased from BioXCell (clones 2A3 and LTF2, respectively) and prepared as described in Example 2 above. […]

[1] = system: CD3/CD28-stimulated effector cells (T cells from healthy donors' PBMCs); test: T cell proliferation assay (3H thymidine incorporation), CD3/CD28-stimulated T cells; format: cell-based, human; details: for Thymidine incorporation(CPM): log[Agonist]
Excerpt: (§3) Briefly, human cells were isolated from healthy donors' PBMCs by using EasySep™ Human T Cell Enrichment Kit (Stemcell Technologies) according to manufacturer's instruction. […] Culture supernatants were collected on Day 2 or 3 for cytokine analysis. Plates were then harvested on DNA specific filter papers (Perkin Elmer) using Harvester96 (Tomtec Life Sciences). The radiolabeled filters were covered with beta scintillation liquid (Perkin Elmer) and read in Microbeta® counter plates (Perkin Elmer). ^3H Thymidine was pulsed on Day 2 for T cell proliferation assay.

activated T cells = test: T cell viability, Cell-Titer Glo Luminescent Cell Viability Assay; format: cell-based, human; details: for Luciferase RLU (T cell viability): log[Agonist]
Description: as §3, with “instruction. […] Cells were cultured in RPMI 1640 medium supplemented with 10% FCS and 100 I.U./mL penicillin/streptomycin in humidified incubator at 37° C. with 5% CO2.” for “instruction.”, “assay. The impact by sunitinib and axitinib on T cell proliferation and viability were repeated as previously published (FIGS. 1A and 1B).” for “assay.”
Cell viability was measured by Cell-Titer Glo Luminescent Cell Viability Assay® (Promega, Madison). […] Table 4 below provides the Luciferase RLU values reflecting T cell viability for each of the respective inhibitors.

MC38 colon carcinoma [2] = test: In vivo tumor efficacy, MC38 model, crizotinib with anti-PD-L1 (Example 3); set-up: species or system C57BL/6 mice; details: crizotinib 40 mg/kg, anti-mPDL1 10 mg/kg
Description: as §1, §2
MC38 colon carcinoma cell line was kindly provided by Dr. Antoni Ribas at UCLA, California. Cells were cultured in DMEM medium supplemented with 10% fetal bovine serum, and 100 I.U./mL penicillin/streptomycin at 37° C. in an atmosphere of 5% CO2 in air, and IMPACT-tested for pathogens at Research Animal Diagnostic Laboratory (RADIL) (Columbia, Mo.). Pathogen-free cells growing in an exponential growth phase were harvested and used for tumor inoculation.
For the MC38 study, C57BL/6 mice were inoculated subcutaneously in the right lower flank with 0.2×10^6 MC38 colon carcinoma cells. When tumor bearing mice achieved a mean tumor volume of 50 to 150 mm^3, mice were randomly assigned to 1 of 4 treatment groups, n=10.

MC38 colon carcinoma [3] = test: In vivo tumor efficacy, MC38 model, crizotinib with avelumab (Example 5); set-up: species or system C57BL/6 mice; details: for Tumor Volume (Mean ± SEM): avelumab 20 mg/kg i.p., crizotinib 40 mg/kg orally QD; for TGI: compared with the isotype control antibody treated group, avelumab 20 mg/kg, crizotinib 40 mg/kg
Description: Avelumab is a fully human IgG1 antibody that recognizes both human and mouse PD-L1. […] Six- to eight-week old female C57BL/6 mice were purchased from The Jackson Laboratories (Farmington, Conn.). Mice were maintained and all animal experiments were conducted according to the protocols approved by the Institutional Animal Care and Use Committee of Rinat, South San Francisco and Worldwide Research and Development (WRD), La Jolla, Pfizer Inc. MC38 colon carcinoma cell line was kindly provided by Dr. Antoni Ribas at UCLA, California. Cells were cultured in DMEM medium supplemented with 10% fetal bovine serum, and 100 I.U./mL penicillin/streptomycin at 37° C. in an atmosphere of 5% CO2 in air, and IMPACT-tested for pathogens at Research Animal Diagnostic Laboratory (RADIL) (Columbia, Mo.). Pathogen-free cells growing in an exponential growth phase were harvested and used for tumor inoculation. […] Human IgG1 was prepared in-house (Lot No. NB123249p192CA110124). […] Body weight was recorded weekly. […] Mice were monitored for tumor growth and body weight changes.

## CCc1cc2c(cc1N1CCC(N3CCOCC3)CC1)C(C)(C)c1[nH]c3cc(C#N)ccc3c1C2=O [Alectinib, alectinib]
CT26 colon carcinoma; Day 7, alectinib study, alectinib 60 mg/kg, anti-mPDL1 10 mg/kg
  Tumor Volume (Mean ± SEM): 119.1 ± 12.5 mm^3
CT26 colon carcinoma; Day 14, alectinib study, alectinib 60 mg/kg, anti-mPDL1 10 mg/kg
  Tumor Volume (Mean ± SEM): 293.4 ± 54.2 mm^3
CT26 colon carcinoma; Day 19, alectinib study, alectinib 60 mg/kg, anti-mPDL1 10 mg/kg
  Tumor Volume (Mean ± SEM): 546.8 ± 98.0 mm^3
CT26 colon carcinoma; Day 24, alectinib study, alectinib 60 mg/kg, anti-mPDL1 10 mg/kg
  Tumor Volume (Mean ± SEM): 1114.2 ± 217.0 mm^3
CT26 colon carcinoma; Day 27, alectinib study, alectinib 60 mg/kg, anti-mPDL1 10 mg/kg
  Tumor Volume (Mean ± SEM): 1892.5 ± 283.1 mm^3

## CCN(CC)CCNC(=O)c1c(C)[nH]c(/C=C2\C(=O)Nc3ccc(F)cc32)c1C [Sunitinib, sunitinib]
[1]; μM: 0
  Thymidine incorporation(CPM): 493570.3 ± 59347.45 CPM
[1]; μM: 1
  Thymidine incorporation(CPM): 332 ± 105.9733 CPM
[1]; μM: 2
  Thymidine incorporation(CPM): 117.3333 ± 16.23 CPM
[1]; μM: 3
  Thymidine incorporation(CPM): 171 ± 25 CPM
[1]; μM: −1
  Thymidine incorporation(CPM): 468847.7 ± 39073.88 CPM
[1]; μM: −2
  Thymidine incorporation(CPM): 444679.3 ± 13911.18 CPM
[1]; μM: −3
  Thymidine incorporation(CPM): 469071 ± 48070.7 CPM
Activated T cells; μM: 0
  Luciferase RLU (T cell viability): 98.24 ± 2.169 RLU
Activated T cells; μM: 1
  Luciferase RLU (T cell viability): 13.95 ± 7.493 RLU
Activated T cells; μM: 2
  Luciferase RLU (T cell viability): 0.8502 ± 0.2596 RLU
Activated T cells; μM: 3
  Luciferase RLU (T cell viability): 1.827 RLU
Activated T cells; μM: −1
  Luciferase RLU (T cell viability): 91.57 ± 2.195 RLU
Activated T cells; μM: −2
  Luciferase RLU (T cell viability): 98.04 ± 2.634 RLU
Activated T cells; μM: −3
  Luciferase RLU (T cell viability): 96.57 ± 1.711 RLU

## C[C@@H](Oc1cc(-c2cnn(C3CCNCC3)c2)cnc1N)c1c(Cl)ccc(F)c1Cl [crizotinib, 3-[(1R)-1-(2,6-dichloro-3-fluorophenyl)ethoxy]-5-(1-piperidin-4-ylpyrazol-4-yl)pyridin-2-amine]
[1]; activated T cells, FIG. 1A
  Effect on T cell proliferation: did not have adverse effects on T cell proliferation
[1]; μM: 0
  Thymidine incorporation(CPM): 432360.3 ± 29488.63 CPM
[1]; μM: 1
  Thymidine incorporation(CPM): 436099.3 ± 34171.33 CPM
[1]; μM: 2
  Thymidine incorporation(CPM): 270672.7 ± 18298.53 CPM
[1]; μM: −1
  Thymidine incorporation(CPM): 438641 ± 47103.88 CPM
[1]; μM: −2
  Thymidine incorporation(CPM): 442995.3 ± 42508.08 CPM
[1]; μM: −3
  Thymidine incorporation(CPM): 421221.3 ± 24333.6 CPM
Activated T cells; FIG. 1B
  Effect on T cell viability: did not result in dose-dependent decreases in T cell viability
Activated T cells; μM: 0
  Luciferase RLU (T cell viability): 94.22 ± 1.814 RLU
Activated T cells; μM: 1
  Luciferase RLU (T cell viability): 91.72 ± 2.354 RLU
Activated T cells; μM: 2
  Luciferase RLU (T cell viability): 64.24 ± 3.748 RLU
Activated T cells; μM: 3
  Luciferase RLU (T cell viability): 1.474 ± 0.1693 RLU
Activated T cells; μM: −1
  Luciferase RLU (T cell viability): 95.6927 ± 1.827 RLU
Activated T cells; μM: −2
  Luciferase RLU (T cell viability): 93.68 ± 1.564 RLU
Activated T cells; μM: −3
  Luciferase RLU (T cell viability): 89.08 ± 2.843 RLU
CT26 colon carcinoma; Day 7, crizotinib 5 mg/kg (alone or with anti-mPDL1)
  Tumor Volume (Mean ± SEM): 90.3 ± 8.1 mm^3
CT26 colon carcinoma; Day 7, crizotinib 20 mg/kg (alone or with anti-mPDL1)
  Tumor Volume (Mean ± SEM): 90.3 ± 8.0 mm^3
CT26 colon carcinoma; Day 7, crizotinib 40 mg/kg (alone or with anti-mPDL1)
  Tumor Volume (Mean ± SEM): 94.4 ± 7.9 mm^3
CT26 colon carcinoma; Day 10, crizotinib 5 mg/kg (alone or with anti-mPDL1)
  Tumor Volume (Mean ± SEM): 140.9 ± 18.0 mm^3
CT26 colon carcinoma; Day 10, crizotinib 20 mg/kg (alone or with anti-mPDL1)
  Tumor Volume (Mean ± SEM): 156.1 ± 21.9 mm^3
CT26 colon carcinoma; Day 10, crizotinib 40 mg/kg (alone or with anti-mPDL1)
  Tumor Volume (Mean ± SEM): 127.0 ± 9.8 mm^3
CT26 colon carcinoma; Day 14, crizotinib 5 mg/kg (alone or with anti-mPDL1)
  Tumor Volume (Mean ± SEM): 246.6 ± 54.7 mm^3
CT26 colon carcinoma; Day 14, crizotinib 20 mg/kg (alone or with anti-mPDL1)
  Tumor Volume (Mean ± SEM): 234.2 ± 49.0 mm^3
CT26 colon carcinoma; Day 14, crizotinib 40 mg/kg (alone or with anti-mPDL1)
  Tumor Volume (Mean ± SEM): 218.5 ± 31.5 mm^3
CT26 colon carcinoma; Day 18, crizotinib 5 mg/kg (alone or with anti-mPDL1)
  Tumor Volume (Mean ± SEM): 407.1 ± 122.2 mm^3
CT26 colon carcinoma; Day 18, crizotinib 20 mg/kg (alone or with anti-mPDL1)
  Tumor Volume (Mean ± SEM): 299.3 ± 67.1 mm^3
CT26 colon carcinoma; Day 18, crizotinib 40 mg/kg (alone or with anti-mPDL1)
  Tumor Volume (Mean ± SEM): 319.6 ± 47.7 mm^3
CT26 colon carcinoma; Day 22, crizotinib 5 mg/kg (alone or with anti-mPDL1)
  Tumor Volume (Mean ± SEM): 749.8 ± 220.0 mm^3
CT26 colon carcinoma; Day 22, crizotinib 20 mg/kg (alone or with anti-mPDL1)
  Tumor Volume (Mean ± SEM): 631.3 ± 158.5 mm^3
CT26 colon carcinoma; Day 22, crizotinib 40 mg/kg (alone or with anti-mPDL1)
  Tumor Volume (Mean ± SEM): 685.3 ± 101.1 mm^3
CT26 colon carcinoma; Day 25, crizotinib 5 mg/kg (alone or with anti-mPDL1)
  Tumor Volume (Mean ± SEM): 1161.1 ± 415.4 mm^3
CT26 colon carcinoma; Day 25, crizotinib 20 mg/kg (alone or with anti-mPDL1)
  Tumor Volume (Mean ± SEM): 934.9 ± 223.8 mm^3
CT26 colon carcinoma; Day 25, crizotinib 40 mg/kg (alone or with anti-mPDL1)
  Tumor Volume (Mean ± SEM): 1074.5 ± 136.2 mm^3
CT26 colon carcinoma; compared to isotype control or single agents
  Anti-tumor effect in CT26 model: no anti-tumor effects
MC38 colon carcinoma [2]; Day 7
  Tumor Volume (Mean ± SEM): 78.1 ± 6.0 mm^3
MC38 colon carcinoma [2]; Day 14
  Tumor Volume (Mean ± SEM): 169.7 ± 16.3 mm^3
MC38 colon carcinoma [2]; Day 19
  Tumor Volume (Mean ± SEM): 291.7 ± 26.2 mm^3
MC38 colon carcinoma [2]; Day 24
  Tumor Volume (Mean ± SEM): 580.5 ± 67.0 mm^3
MC38 colon carcinoma [2]; Day 27
  Tumor Volume (Mean ± SEM): 836.5 ± 137.8 mm^3
MC38 colon carcinoma [3]; Day 7
  Tumor Volume (Mean ± SEM): 78.1 ± 6.0 mm^3
MC38 colon carcinoma [3]; Day 14
  Tumor Volume (Mean ± SEM): 169.7 ± 16.3 mm^3
MC38 colon carcinoma [3]; Day 19
  Tumor Volume (Mean ± SEM): 291.7 ± 26.2 mm^3
MC38 colon carcinoma [3]; Day 24
  Tumor Volume (Mean ± SEM): 580.5 ± 67.0 mm^3
MC38 colon carcinoma [3]; Day 27
  Tumor Volume (Mean ± SEM): 836.5 ± 137.8 mm^3
MC38 colon carcinoma [3]
  TGI: 48.5%

B1: Avelumab: fully human IgG1 antibody that recognizes both human and mouse PD-L1 (antibody, V domains shown)
VH: EVQLLESGGGLVQPGGSLRLSCAASGFTFSSYIMWVRQAPGKGLEWVSSIYPSGGITFYADKGRFTISRDNSKNTLYLQMNSLRAEDTAVYYCARIKLGTVTTVDYWGQGTLVTVSS
VL: QSALTQPASVSGSPGQSITISCTGTSSDVGGYNYVSWYQQHPGKAPKLMIYDVSNRPSGVSNRFSGSKSGNTASLTISGLQAEDEADYYCSSYTSSSTRVFGTGTKVTVL
MC38 colon carcinoma [3]; Day 7
  Tumor Volume (Mean ± SEM): 78.3 ± 5.4 mm^3
MC38 colon carcinoma [3]; Day 14
  Tumor Volume (Mean ± SEM): 145.5 ± 11.0 mm^3
MC38 colon carcinoma [3]; Day 19
  Tumor Volume (Mean ± SEM): 307.1 ± 25.5 mm^3
MC38 colon carcinoma [3]; Day 24
  Tumor Volume (Mean ± SEM): 535.0 ± 62.0 mm^3
MC38 colon carcinoma [3]; Day 27
  Tumor Volume (Mean ± SEM): 817.7 ± 87.2 mm^3
MC38 colon carcinoma [3]
  TGI: 49.7%
